# Values of other authors, collected in patent US20090192128A1 (priority 2005, published 2009).
# Structures can show the parent of a compound that is named as a salt.
solubility in alcohol (alcohol),solubility in ether (ether),Structure (SMILES),"solubility in organic solvents (organic solvents such as ethanol, ether and chloroform)",solubility in water
,,"O=[N+]([O-])O[C@H]1CO[C@H]2[C@@H]1OC[C@H]2O[N+](=O)[O-] [Diluted isosorbide dinitrate, 1,4,3,6-dianhydro-D-glucitol-2,5-dinitrate]",freely soluble,sparingly soluble
slightly soluble,very slightly soluble,"NNc1nncc2ccccc12 [Hydralazine hydrochloride, hydralazine hydrochloride]",,soluble
